From patent publication US5527810A, “Decahydroisoquinoline compounds as excitatory amino acid receptor antagonists” (Eli Lilly and Company, priority 1994, dated 1996)

Columns and labels:
[1] = system: formalin model; conditions: cited from earlier work
[2] = target: kainic acid receptor; assay: Kainate receptor radioligand binding, displacement of [3H]KA (washed synaptosomal membranes from rat forebrain); conditions: [3H]kainate 5 nM, pH 7.4; mean ± standard error (n=3); 21.0 of compound 2 is a single experiment (footnote d)
Experimental: The formula I compounds were tested for their ability to inhibit NMDA, AMPA, and kainic acid receptor binding to rat membranes in a radioligand binding assay using [^3 H]CGS19755, [^3 H]AMPA, and [^3 H]KA. For all radioligand binding assays, male Sprague-Dawley rats were used. Displacement of the specific binding [^3 H]CGS19755 (10 nM) to Triton-X-treated synaptosomal membranes of rat forebrain was used to determine NMDA receptor affinity. Non-specific binding was determined using 10 μM L-glutamate. Samples were incubated in an ice-bath for 30 minutes, and bound ligand was separated from the free ligand by rapid filtration through WHATMAN GF/B glass fiber filters. Murphy et al, British J. Pharmacol., 95, 932-938 (1988). Kainate binding was performed using washed synaptosomal membranes from the rat forebrain as described by Simon et al. Simon et al, J. Neurochem., 26, 141-147 (1976). Tritiated kainate (5 nM) was added to 50 mM Tris-HCl buffer (pH 7.4 at 4° C.) containing 200-300 μg/ml of tissue protein. Samples were incubated for 30 minutes in an ice-bath, then rapidly filtered using a Brandel cell harvester and WHATS GF/C filters. Filters were washed twice with 3 ml of cold buffer. Non-specific binding was determined using 100 μM non-labeled kainate. […] Non-specific binding was determined with 10 μM non-labeled […]. […]

[3] = target: NMDA receptor; assay: NMDA receptor radioligand binding, displacement of [3H]CGS19755 (rat forebrain synaptosomal membranes)
Experimental: (§1) The formula I compounds were tested for their ability to inhibit NMDA, AMPA, and kainic acid receptor binding to rat membranes in a radioligand binding assay using [^3 H]CGS19755, [^3 H]AMPA, and [^3 H]KA. For all radioligand binding assays, male Sprague-Dawley rats were used. Displacement of the specific binding [^3 H]CGS19755 (10 nM) to Triton-X-treated synaptosomal membranes of rat forebrain was used to determine NMDA receptor affinity. Non-specific binding was determined using 10 μM L-glutamate. Samples were incubated in an ice-bath for 30 minutes, and bound ligand was separated from the free ligand by rapid filtration through WHATMAN GF/B glass fiber filters. Murphy et al, British J. Pharmacol., 95, 932-938 (1988). Kainate binding was performed using washed synaptosomal membranes from the rat forebrain as described by Simon et al. Simon et al, J. Neurochem., 26, 141-147 (1976). Tritiated kainate (5 nM) was added to 50 mM Tris-HCl buffer (pH 7.4 at 4° C.) containing 200-300 μg/ml of tissue protein. Samples were incubated for 30 minutes in an ice-bath, then rapidly filtered using a Brandel cell harvester and WHATS GF/C filters. Filters were washed twice with 3 ml of cold buffer. Non-specific binding was determined using 100 μM non-labeled kainate. The binding of [^3 H]AMPA (5 nM) was conducted with crude membranes of rat forebrain in the presence of 100 mM KSCN as described by Nielson et al. Nielson et al, Eur. J. Med. Chem. Chem. Ther., 21, 433-437 (1986). Non-specific binding was determined with 10 μM non-labeled AHPA. The concentration of the formula I compound that inhibited 50% binding (IC50, mean ± standard error, n=3) as calculated by linear regression of displacement data transformed to the Hill equation as described by Bennett. Bennett, Neurotransmitter Receptor Binding, 57-90 (1978).

[4] = target: AMPA receptor; assay: AMPA receptor radioligand binding, displacement of [3H]AMPA (crude membranes of rat forebrain)
Experimental: as §1

[5] = system: kainate (KA) receptor; assay: Antagonism of cortical wedge depolarization induced by kainate; format: cell-based, rat; conditions: kainate 10 μM; mean ± standard error (n=3); 15 min
Experimental: (§2) The depolarization of rat cortical wedges was used to test the selectivity and potency of the formula I compounds as AMPA and NTMDA antagonists using a technique similar to that described by Harrison and Simmonds. Harrison and Simmonds, Bri. J. Pharmacol., 84, 381-391 (1984). Generally, 4-ml aliquots of NMDA (40 μM), AMPA (40 μM), and kainate (10 μM) were superfused (2 ml/min.) on the grey matter at intervals of 15-20 minutes until stable responses were attained. The tissue was then exposed for 15 minutes to various concentrations of the formula I compounds before retesting the agonists. The IC50 values were calculated from linear regression of log dose-response curves, each point the mean of at least three observations on separate slices from more than one animal.

[6] = system: NMDA receptor; assay: Antagonism of cortical wedge depolarization induced by NMDA; format: cell-based, rat; conditions: for IC50: NMDA 40 μM, mean ± standard error (n=3)
Experimental: as §2

[7] = system: AMPA receptor; assay: Antagonism of cortical wedge depolarization induced by AMPA; format: cell-based, rat; conditions: for IC50: AMPA 40 μM, mean ± standard error (n=3)
Experimental: as §2

[8] = system: CNS ischemia; conditions: cited from earlier work
[9] = system: Huntington's Disease; conditions: in vivo; cited from earlier work
[10] = system: sound induced seizures; conditions: DBA/2 mice; cited from earlier work
[11] = system: warm water tail withdrawal; conditions: rhesus monkeys; cited from earlier work
[12] = system: focal cerebral ischemia; conditions: cited from earlier work
[13] = system: focal cerebral ischemia; conditions: cited from earlier work; remark: listed apart in the source
[14] = system: global ischemia; conditions: in vivo; cited from earlier work
[15] = system: global and focal ischemic damage; conditions: in vivo; cited from earlier work
[16] = [3H]CGS19755 10 nM, mean ± standard error (n=3), 0.96 of compound 2 is a single experiment (footnote d), read-out: IC50 NMDA (receptor binding)
[17] = [3H]AMPA 5 nM, 100 mM KSCN, mean ± standard error (n=3), read-out: IC50 AMPA (receptor binding)

SMILES: NC(CCCP(=O)(O)O)C(=O)O (racemic) [DL-AP5]
- analgesic in mouse formalin model [1]: analgesic

SMILES: O=C(O)[C@@H]1C[C@H]2C[C@@H](c3nn[nH]n3)CC[C@H]2CN1 (relative stereo) [Compound 1, (3SR, 4aRS, 6SR, 8aRS)-6-(1(2)H-Tetrazole-5-yl)decahydroisoquinoline-3-carboxylic Acid]
- IC50 KA (receptor binding) [2]: 31.84 ± 2.31 µM
- IC50 [3, 16]: 1.56 ± 0.23 µM
- IC50 [4, 17]: 12.8 ± 0.27 µM
- IC50 KA (cortical wedge depolarization) [5]: > 100 µM
- IC50 [6]: 7.5 ± 0.7 µM
- IC50 [7]: 40.9 ± 5.2 µM

SMILES: O=C(O)[C@H]1C[C@@H](Cc2nn[nH]n2)CCN1 (relative stereo) [LY233053]
- protection in CNS ischemia model in rabbits [8]: provided protection

SMILES: O=C(O)[C@@H]1C[C@H]2C[C@@H](CP(=O)(O)O)CC[C@H]2CN1 (relative stereo) [LY274614]
- neuroprotection in animal model of Huntington's Disease [9]: neuroprotective

SMILES: C/C(=C\C(N)C(=O)O)CP(=O)(O)O (stereo not shown) [CGP 37849]
- anticonvulsant against sound induced seizures [10]: anticonvulsant

SMILES: O=C(O)[C@@H]1C[C@H](CP(=O)(O)O)CCN1 [CGS 19755]
- analgesic in warm water tail withdrawal procedure [11]: analgesic
- protection in focal cerebral ischemia model in rats [12]: provided protection

SMILES: O=C(O)[C@@H]1C[C@H]2C[C@@H](c3nn[nH]n3)CC[C@H]2CN1 [Compound 2, (3S, 4aR, 6S, 8aR)-6-(1(2)H-Tetrazole-5-yl)decahydroisoquinoline-3-carboxylic Acid]
- IC50 KA (receptor binding) [2]: 21.0 µM
- IC50 [3, 16]: 0.96 µM
- IC50 ([3]; text summary of Table I, read-out: IC50 for displacement of [3H]CGS19755, summary statement): < 10 µM
- IC50 [4, 17]: 5.72 ± 0.89 µM
- IC50 ([4]; text summary of Table I, read-out: IC50 for displacement of 3H-AMPA, summary statement): < 10 µM
- IC50 KA (cortical wedge depolarization) [5]: > 100 µM
- IC50 [6]: 4.1 ± 0.3 µM
- NMDA receptor antagonism ([6]; statement in words, Table II): AMPA and NMDA receptor antagonists
- IC50 [7]: 13.2 ± 2.4 µM
- AMPA receptor antagonism ([7]; statement in words, Table II): AMPA and NMDA receptor antagonists

SMILES: O=C(O)[C@H]1CN(C/C=C/P(=O)(O)O)CCN1 [D-(-)CPP-ene]
- protection in focal cerebral ischemia model in cats [13]: provided protection
- anticonvulsant against sound induced seizures [10]: anticonvulsant

SMILES: CC1=NN=C(c2ccc(N)cc2)c2cc3c(cc2C1)OCO3 [GKYI 52466]
- neuroprotection in rat global ischemia models [14]: effective neuroprotective agent

SMILES: NS(=O)(=O)c1cccc2c1c([N+](=O)[O-])cc1nc(O)c(O)nc12 [NBQX, 2,3-dihydroxy-6-nitro-7-sulfamoylbenzo[f]quinoxaline]
- prevention of global and focal ischemic damage [15]: effective in preventing global and focal ischemic damage

SMILES: C[C@]12N[C@H](Cc3ccccc31)c1ccccc12 [dizocilpine]
- protection in focal cerebral ischemia model in cats [13]: provided protection
- protection in focal cerebral ischemia model in rats [12]: provided protection
